Results reported in US6992169B2, “Carrier based drug delivery system” (Cyclacel Limited, priority 1998, dated 2006).

Tested on: HaCaT cells
Assay: In vitro cytotoxic activity, inhibition of cell proliferation, ATP bioluminescence (ViaLight)
Type: cell-based, human
Settings: Table 1, HaCaT
Protocol: This compound (abbreviated ‘MTX-Pen’ in the tables below) was evaluated for its ability to inhibit cell proliferation of normal (immortalised) human cells (HaCaT cells, Tables 1 & 2) and a human colorectal cancer cell line (HT29, Table 3).
Assay procedure—Cells were seeded into 96-well plates at 2,500 cells/well in DMEM with 10% FCS and antibiotics. After overnight incubation, test compound dilutions in cell medium were prepared and were added to the cells. Samples were taken 1, 2, 3, and 4 days after compound addition. Nucleotide Releasing Reagent (LumiTech ViaLight kit) was added in order to lyse the cells and release ATP. After incubation at room temperature (5 min), the mixtures were transferred to opaque 96-well plates and stored at −20° C. until analysis. After loading plates into a luminometer (Lucy 1, Labtech International), ATP Monitoring Reagent (20 μL/well, LumiTech ViaLight kit) was added to each well successively and light intensity was measured immediately. Six readings were taken per sample. Each assay point was established using six replicates and appropriate controls. […] Statistically significant results in the tables below are printed in bold face.
This compound (abbreviated ‘MTX-Pen’ in tables below) was evaluated for its ability to inhibit cell proliferation of normal (immortalised) human cells (HaCaT cells, Tables 1 & 2) and a human colorectal cancer cell line (HT29, Table 3).
Assay procedure—Cells were seeded into 96-well plates at 2,500 cells/well in DMEM with 10% foetal calf serum and antibiotics. After overnight incubation, test compound dilutions in cell medium were prepared and were added to the cells. Samples were taken 1, 2, 3, and 4 days after compound addition. Nucleotide Releasing Reagent (LumiTech ViaLight kit) was added in order to lyse the cells and release ATP. After incubation at room temperature (5 min), the mixtures were transferred to opaque 96-well plates and stored at −20° C. until analysis. After loading plates into a luminometer (Lucy 1, Labtech International), ATP Monitoring Reagent ([…], LumiTech ViaLight kit) was added to each well successively and light intensity was measured immediately. Six readings were taken per sample. Each assay point was established using six replicates and appropriate controls.

Substance: H-Ala-Arg-Gln-Ile-Lys-Ile-Trp-Phe-Gln-Asn-Arg-Arg-Met-Lys-Trp-Lys-Lys-OH (H-ARQIKIWFQNRRMKWKK-OH) [Pen, the free vector]
- % Cell Death (Dose 0.2 μM, Day 1): 26%
- % Cell Death (Dose 0.2 μM, Day 2): 0%
- % Cell Death (Dose 0.2 μM, Day 3): −3%
- % Cell Death (Dose 0.2 μM, Day 4): 21%
- % Cell Death (Dose 0.5 μM, Day 1): 6%
- % Cell Death (Dose 0.5 μM, Day 2): −6%
- % Cell Death (Dose 0.5 μM, Day 3): −29%
- % Cell Death (Dose 0.5 μM, Day 4): −26%
- % Cell Death (Dose 1.5 μM, Day 1): 16%
- % Cell Death (Dose 1.5 μM, Day 2): −31%
- % Cell Death (Dose 1.5 μM, Day 3): 2%
- % Cell Death (Dose 1.5 μM, Day 4): −14%
- % Cell Death (Dose 4.4 μM, Day 1): 8%
- % Cell Death (Dose 4.4 μM, Day 2): −4%
- % Cell Death (Dose 4.4 μM, Day 3): −1%
- % Cell Death (Dose 4.4 μM, Day 4): 10%
- % Cell Death (Dose 13.3 μM, Day 1): 18%
- % Cell Death (Dose 13.3 μM, Day 2): 0%
- % Cell Death (Dose 13.3 μM, Day 3): −17%
- % Cell Death (Dose 13.3 μM, Day 4): −6%
- % Cell Death (Dose 40.0 μM, Day 1): 16%
- % Cell Death (Dose 40.0 μM, Day 2): −22%
- % Cell Death (Dose 40.0 μM, Day 3): 5%
- % Cell Death (Dose 40.0 μM, Day 4): 12%
